This is an account of results in patent US20230373985A1 (Origenis Gmbh, priority 2020, published 2023).

Structures are written as SMILES. Bounds are passed on as bounds.

For experiment [1], the target named is T1, wt human JAK1, catalytic site (Homo sapiens, UniProt P23458).
T1 construct: wt human JAK1, catalytic site; purchased ThermoFisher
Put plainly: HTRF KinEASE assay, JAK1. In kind it is biochemical. The settings on record: 2.5 μM ATP; read-out: IC50, Activity Toward JAK1. An outline of the steps:
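Compounds in DMSO dilution were mixed with kinase, biotin-TK substrate and ATP and reacted for ≥30 min at room temperature. Detection reagents (antibody, streptavidin-XL665) were read 60 min later as HTRF, with emission ratios analysed per KinEASE protocol.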

The target in experiment [2] is T2, wt human TYK2, catalytic site (Homo sapiens, UniProt P29597).
T2 construct: wt human TYK2, catalytic site; purchased SignalChem
T2 sequence (P29597 897-1176 limits assumed): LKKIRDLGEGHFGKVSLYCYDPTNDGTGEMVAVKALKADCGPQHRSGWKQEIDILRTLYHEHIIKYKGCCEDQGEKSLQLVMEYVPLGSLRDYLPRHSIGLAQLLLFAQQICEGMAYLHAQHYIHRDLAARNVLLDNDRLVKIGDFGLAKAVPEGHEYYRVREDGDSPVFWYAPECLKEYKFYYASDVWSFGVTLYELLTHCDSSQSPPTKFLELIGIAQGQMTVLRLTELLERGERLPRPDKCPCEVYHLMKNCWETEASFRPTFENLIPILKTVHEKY
The experiment in a line: HTRF KinEASE assay, TYK2. In kind it is biochemical. The note with it: 1 μM ATP; read-out: IC50, Activity Toward TYK2. The procedure, abridged:
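Kinase reaction run at room temperature for at least 30 min: 2 nM TYK2 with 1 μM ATP, or 1 nM JAK2 with 100 μM ATP, each with 1 μM biotin-TK substrate. Phosphorylation detected by HTRF (60 min antibody/XL665) and evaluated from emission ratios.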

In general, IC50 refers to the concentration at which inhibition is half-maximal.

T1 sequence (P23458 875-1153 limits assumed): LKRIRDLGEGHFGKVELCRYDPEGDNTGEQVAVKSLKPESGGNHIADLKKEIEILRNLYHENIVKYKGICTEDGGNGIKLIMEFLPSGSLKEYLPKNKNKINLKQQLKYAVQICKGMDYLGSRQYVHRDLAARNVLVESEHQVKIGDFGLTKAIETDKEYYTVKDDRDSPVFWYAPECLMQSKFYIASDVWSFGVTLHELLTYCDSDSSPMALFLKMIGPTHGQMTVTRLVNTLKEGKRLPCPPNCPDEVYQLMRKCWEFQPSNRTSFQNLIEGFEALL

As to `NC(=O)c1nn(-c2c(Cl)cc(F)cc2Cl)nc1Nc1ccc(C(=O)N2CCSCC2)cc1` [compound 177, 2-(2,6-dichloro-4-fluorophenyl)-5-((4-(thiomorpholine-4-carbonyl)phenyl)amino)-2H-1,2,3-triazole-4-carboxamide], the IC50 is below 0.01 µM in experiment [1] and 0.01 to 0.1 µM in experiment [2].

Regarding `Cn1cncc1-c1ccc(Nc2cn(-c3c(Cl)cccc3Cl)nc2C(N)=O)cc1` [compound 204, 1-(2,6-dichlorophenyl)-4-((4-(1-methyl-1H-imidazol-5-yl)phenyl)amino)-1H-pyrazole-3-carboxamide], the results for the half-maximal inhibitory concentration (IC50) in experiment [1] and in experiment [2] were 0.1 to 1 µM and 0.01 to 0.1 µM, respectively.

As for `NC(=O)c1nn(-c2c(F)cccc2Cl)cc1Nc1ccc(-n2cc3c(n2)CCOC3)cc1` [compound 209, 1-(2-chloro-6-fluorophenyl)-4-((4-(6,7-dihydropyrano[4,3-c]pyrazol-2(4H)-yl)phenyl)amino)-1H-pyrazole-3-carboxamide], the IC50 was 0.1 to 1 µM in experiment [1] and 0.01 to 0.1 µM in experiment [2].

On to `Cc1cnnc(-c2ccc(Nc3cn(-c4c(Cl)cccc4Cl)nc3C(N)=O)cc2)c1C` [compound 213, 1-(2,6-dichlorophenyl)-4-((4-(4,5-dimethylpyridazin-3-yl)phenyl)amino)-1H-pyrazole-3-carboxamide], for which the IC50 in experiment [1] was in the range of 0.1 to 1 µM; in experiment [2], 0.01 to 0.1 µM.

As to `Cn1nc(C(F)(F)F)nc1-c1ccc(Nc2cn(-c3c(Cl)cccc3Cl)nc2C(N)=O)cc1` [compound 215, 1-(2,6-dichlorophenyl)-4-((4-(1-methyl-3-(trifluoromethyl)-1H-1,2,4-triazol-5-yl)phenyl)amino)-1H-pyrazole-3-carboxamide], the values for the IC50 in experiment [1] and in experiment [2] were 0.01 to 0.1 µM and below 0.01 µM, respectively.

`Cc1cc(C)n(-c2ccc(Nc3cn(-c4c(Cl)cccc4Cl)nc3C(N)=O)cc2)n1` [compound 216, 1-(2,6-dichlorophenyl)-4-((4-(3,5-dimethyl-1H-pyrazol-1-yl)phenyl)amino)-1H-pyrazole-3-carboxamide]: the half-inhibitory concentration (IC50) in experiment [1] and in experiment [2] was 0.01 to 0.1 µM throughout.

As for `Cc1cnn(-c2ccc(Nc3cn(-c4c(Cl)cccc4Cl)nc3C(N)=O)cc2)c1C` [compound 218, 1-(2,6-dichlorophenyl)-4-((4-(4,5-dimethyl-1H-pyrazol-1-yl)phenyl)amino)-1H-pyrazole-3-carboxamide], the IC50 in experiment [1] and in experiment [2] was 0.1 to 1 µM in each case.

Regarding `Cc1nn(-c2ccc(Nc3cn(-c4c(Cl)cccc4Cl)nc3C(N)=O)cc2)c(C)c1C` [compound 224, 1-(2,6-dichlorophenyl)-4-((4-(3,4,5-trimethyl-1H-pyrazol-1-yl)phenyl)amino)-1H-pyrazole-3-carboxamide], the IC50 in experiment [1] and in experiment [2] was 0.1 to 1 µM in each case.

With `NC(=O)c1nn(-c2c(Cl)cccc2Cl)cc1Nc1ccc(C(=O)N2CCCC2)cn1` [compound 226, 1-(2,6-dichlorophenyl)-4-((5-(pyrrolidine-1-carbonyl)pyridin-2-yl)amino)-1H-pyrazole-3-carboxamide], the IC50 in experiment [1] lay in the range of 0.1 to 1 µM; in experiment [2], 0.01 to 0.1 µM.

Turning to `CCc1ccn(-c2ccc(Nc3cn(-c4c(Cl)cccc4Cl)nc3C(N)=O)cc2)n1` [compound 240, 1-(2,6-dichlorophenyl)-4-((4-(3-ethyl-1H-pyrazol-1-yl)phenyl)amino)-1H-pyrazole-3-carboxamide], the IC50 in experiment [1] and in experiment [2] was 0.1 to 1 µM throughout.

Regarding `CCc1ccnn1-c1ccc(Nc2cn(-c3c(Cl)cccc3Cl)nc2C(N)=O)cc1` [compound 241, 1-(2,6-dichlorophenyl)-4-((4-(5-ethyl-1H-pyrazol-1-yl)phenyl)amino)-1H-pyrazole-3-carboxamide], the IC50 is below 0.01 µM in experiment [1] and 0.01 to 0.1 µM in experiment [2].

In the case of `Cn1c(-c2ccc(Nc3cn(-c4c(Cl)cccc4Cl)nc3C(N)=O)cc2)nnc1C(F)(F)F` [compound 242, 1-(2,6-dichlorophenyl)-4-((4-(4-methyl-5-(trifluoromethyl)-4H-1,2,4-triazol-3-yl)phenyl)amino)-1H-pyrazole-3-carboxamide], the IC50 in experiment [1] and in experiment [2] was 0.01 to 0.1 µM each time.

On to `Cc1nnnn1-c1ccc(Nc2cn(-c3c(Cl)cccc3Cl)nc2C(N)=O)cc1` [compound 243, 1-(2,6-dichlorophenyl)-4-((4-(5-methyl-1H-tetrazol-1-yl)phenyl)amino)-1H-pyrazole-3-carboxamide], for which the IC50 was 0.01 to 0.1 µM in experiment [1] and below 0.01 µM in experiment [2].

As for `Cc1c(C#N)cnn1-c1ccc(Nc2cn(-c3c(Cl)cccc3Cl)nc2C(N)=O)cc1` [compound 253, 4-((4-(4-cyano-5-methyl-1H-pyrazol-1-yl)phenyl)amino)-1-(2,6-dichlorophenyl)-1H-pyrazole-3-carboxamide], the IC50 in experiment [1] and in experiment [2] was 0.1 to 1 µM throughout.

As to `NC(=O)c1nn(-c2c(Cl)cccc2Cl)cc1Nc1ccc(C(=O)N2CC(F)(F)C(F)(F)C2)cc1` [compound 254, 1-(2,6-dichlorophenyl)-4-((4-(3,3,4,4-tetrafluoropyrrolidine-1-carbonyl)phenyl)amino)-1H-pyrazole-3-carboxamide], the values for the IC50 in experiment [1] and in experiment [2] were 0.01 to 0.1 µM and below 0.01 µM, respectively.

On to `CC(C)Oc1ccc(Nc2cn(-c3c(Cl)cccc3Cl)nc2C(N)=O)cc1` [compound 261, 1-(2,6-dichlorophenyl)-4-((4-isopropoxyphenyl)amino)-1H-pyrazole-3-carboxamide], for which the IC50 in experiment [1] and in experiment [2] was 0.1 to 1 µM throughout.

As to `CC(C)c1ccn(-c2ccc(Nc3cn(-c4c(Cl)cccc4Cl)nc3C(N)=O)cc2)n1` [compound 263, 1-(2,6-dichlorophenyl)-4-((4-(3-isopropyl-1H-pyrazol-1-yl)phenyl)amino)-1H-pyrazole-3-carboxamide], the IC50 in experiment [1] and in experiment [2] was 0.1 to 1 µM throughout.

Take `CN1CCn2c(nnc2-c2ccc(Nc3cn(-c4c(Cl)cccc4Cl)nc3C(N)=O)cc2)C1` [compound 269, 1-(2,6-dichlorophenyl)-4-((4-(7-methyl-5,6,7,8-tetrahydro-[1,2,4]triazolo[4,3-a]pyrazin-3-yl)phenyl)amino)-1H-pyrazole-3-carboxamide]: the IC50 in experiment [1] and in experiment [2] was 0.01 to 0.1 µM throughout.

For `CCS(=O)(=O)Nc1ccc(Nc2cn(-c3c(Cl)cccc3Cl)nc2C(N)=O)cc1` [compound 270, 1-(2,6-dichlorophenyl)-4-((4-(ethylsulfonamido)phenyl)amino)-1H-pyrazole-3-carboxamide], the IC50 in experiment [1] and in experiment [2] was 0.01 to 0.1 µM throughout.

With `CS(=O)(=O)Nc1ccc(Nc2cn(-c3c(Cl)cccc3Cl)nc2C(N)=O)cc1` [compound 271, 1-(2,6-dichlorophenyl)-4-((4-(methylsulfonamido)phenyl)amino)-1H-pyrazole-3-carboxamide], the IC50 in experiment [1] and in experiment [2] was 0.01 to 0.1 µM in each case.

Regarding `CN(C)CCc1nnnn1-c1ccc(Nc2cn(-c3c(Cl)cccc3Cl)nc2C(N)=O)cc1` [compound 273, 1-(2,6-dichlorophenyl)-4-((4-(5-(2-(dimethylamino)ethyl)-1H-tetrazol-1-yl)phenyl)amino)-1H-pyrazole-3-carboxamide], the half-maximal inhibitory concentration (IC50) in experiment [1] and in experiment [2] was 0.01 to 0.1 µM in each case.
